{
  "source": "patent US20080318847A1",
  "about": "“Use of Antagonist of Oxytocin and/or Vasopressin in Assisted Reproduction” (Ferring International Center SA, priority 2005, published 2008)",
  "key": {"[1]": {"test_system": "human pregnant myometrium", "conditions": "cited from earlier work"}, "[2]": {"conditions": "in vivo; cited from earlier work"}, "[3]": {"test_system": "uterine contractile activity", "conditions": "non pregnant humans, vasopressin administrations VAS-1 to VAS-3; Bossmar et al.; cited from earlier work"}, "[4]": {"target": "vasopressin V1a receptors (Homo sapiens, UniProt P37288)", "sequence (P37288 whole entry)": "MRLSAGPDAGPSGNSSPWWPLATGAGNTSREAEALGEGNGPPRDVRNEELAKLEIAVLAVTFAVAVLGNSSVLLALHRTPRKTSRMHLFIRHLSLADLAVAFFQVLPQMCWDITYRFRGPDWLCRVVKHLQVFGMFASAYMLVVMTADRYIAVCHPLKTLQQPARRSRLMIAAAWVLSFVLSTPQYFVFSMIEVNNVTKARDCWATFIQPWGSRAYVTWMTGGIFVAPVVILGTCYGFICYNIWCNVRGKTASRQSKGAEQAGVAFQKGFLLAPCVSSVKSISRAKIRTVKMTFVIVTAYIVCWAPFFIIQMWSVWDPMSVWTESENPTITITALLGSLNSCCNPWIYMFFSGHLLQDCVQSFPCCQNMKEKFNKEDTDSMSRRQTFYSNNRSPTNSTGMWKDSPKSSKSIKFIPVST", "conditions": "V1a versus oxytocin receptors; cited from earlier work"}, "[5]": {"test_system": "uterine contractile activity", "experiment": "Transvaginal sonography of uterine contractile activity before and during atosiban infusion at embryo transfer (IVF-ET patient)", "format": "in vivo, human", "description": "FIG. 1 presents a graph on uterine contractile activity assessed by transvaginal sonography in patient which case is described in example 1. Uterine contractions on graph B and C are marked with light color for better visualization. In the method of digital image analysis, due to the requirement of a high picture quality, a period of 4 minutes out of total 5 minutes recorded was selected for analysis. • A) Schematic presentation of a principle of non invasive assessment of uterine contractility (done similarly to Fanchin et al. [Hum. Reprod. 1998; 13(7):1968-74]) Description: U—uterus, En—endometrium (the inner layer of the uterus)—during the uterine contractions, changes in texture and contour of endometrium are observed, My—myometrium (the middle layer of uterus, built of smooth muscle tissue), T—testing segment, where movements of contour of endometrium representing the uterine contractile activity are assessed • B) Graph presenting uterine contractile activity before the application of oxytocin antagonist atosiban. Contractile hyperactivity is seen. Legend: ↑—uterine contraction, 1 min—segment representing 1 min of digital recording, T—testing segment, where movements of contour of endometrium reflecting the uterine contractile activity are assessed; C) Graph presenting uterine contractile activity in the time of maximal effect of oxytocin antagonist atosiban. […] Legend: ↑—uterine contraction, 1 min—segment representing 1 min of digital recording, T—testing segment, where movements of contour of endometrium reflecting the uterine contractile activity are assessed\nIn the 8th cycle of the treatment, a decision on application of a medicament containing atosiban (antagonist of oxytocin and vasopressin) was drawn, aiming to improve the uterine receptivity. The medicament was given in intravenous infusion, which started 60 minutes before the transfer and was continued throughout 2 hours after the transfer. […]"}, "[6]": {"test_system": "uterine receptivity at the embryo transfer", "experiment": "Clinical application of atosiban at embryo transfer (IVF-ET): outcome and tolerability", "format": "in vivo, human", "description": "Clinical application of medicament containing atosiban—an antagonist of oxytocin and vasopressin for increasing the uterine receptivity at the embryo transfer in the course of assisted reproduction procedure of IVF-ET (in vitro fertilization-embryo transfer).\nIn the 8th cycle of the treatment, a decision on application of a medicament containing atosiban (antagonist of oxytocin and vasopressin) was drawn, aiming to improve the uterine receptivity. The medicament was given in intravenous infusion, which started 60 minutes before the transfer and was continued throughout 2 hours after the transfer. 10 minutes before the start of administration (70 minutes before the transfer) transvaginal sonography with 5-minute digital registration of uterine contractions was performed. […] Immediately after, a continuous infusion of 18 mg/hour of atosiban was connected using the infusion pump and was continued throughout the next 60 minutes. 45 minutes after the initiation of the infusion, transvaginal sonography with digital image registration was repeated. Between 55th and 60th minute of infusion, a sonography-guided transfer of 2 embryos was performed. After the transfer, the dosage of atosiban was changed to 6 mg/hour. Infusion was finished 2 hours after the transfer, total dose administered was 37.5 mg.\nThe mode of application of atosiban described above provided the maximal effect at the time of embryo transfer (it was proven that stable concentrations of atosiban are reached about an hour after the initiation of the infusion). Patient stayed in horizontal position until an hour after termination of the infusion and limited their activities on that day. At the control visit done 2 weeks after the embryo transfer, a pregnancy test was done with positive result."}, "human sperm": {"test_system": "human sperm", "experiment": "Human Sperm Motility Bioassay (embryotoxicity)", "format": "cell-based", "description": "In order to verify the embryotoxicity of atosiban a study on influence of atosiban on parameters of human sperm motility was performed (Human Sperm Motility Bioassay). The technique used in the study is a standard in the quality control and evaluation of embryotoxicity in IVF laboratories.\nThe study was performed on samples of fresh human sperm taken from 15 healthy donors with perfect seminologic parameters. After selecting the alive and motile population (swim-up ascending migration method), sperm samples were transferred to the sterile Eppendorf tubes containing Human Sperm Preparation Medium alone or with atosiban in concentrations of 300 nM, 1000 nM, 3000 nM, last concentrations being 10-fold to maximal concentrations achieved in humans in the course of treatment of preterm labor. Sperm motility assessment was performed with computer assisted sperm analyzer Hobson Sperm Tracker in the 1st, 8th and 24th hour of exposition to atosiban.\nFollowing parameters were analyzed:\na) percentage of actively motile sperm cells (Active %); b) percentage of motile sperm cells (Motility %); c) percentage of hyperactively motile sperm cells (Hyper %), d) VSL—straight line velocity, e) VCL—total velocity, f) ALH—amplitude of lateral head displacements. Results are presented at FIG. 2 and FIG. 3. In the statistic analysis, analysis of variance (ANOVA) was applied."}, "[7]": {"conditions": "after the initiation of the intravenous infusion; cited from earlier work"}, "[8]": {"conditions": "clinical use in preterm labor; cited from earlier work"}, "[9]": {"conditions": "atosiban 300 nM, 1000 nM, 3000 nM, 1st, 8th and 24th hour, ANOVA"}},
  "note": "“Also recorded” adds a separate entry of the source. Bridge positions count the residues as written; N and C are the ends. Square brackets hold non-standard residues; d marks the D form. Peptide text beside a SMILES is read from it. Orn = NCCC[C@H](N)C(=O)O; Mpa = O=C(O)CCS",
  "data": [
    {"compound": "barusiban", "values": [
      {"measurement": "inhibition of contractile activity", "setting": "[1]; in the range of oxytocin concentrations that occur in humans", "result": "total inhibition"},
      {"measurement": "potency as inhibitor of uterine contractions compared to atosiban", "setting": "[1]; in vitro", "result": "more potent"},
      {"measurement": "myometrium contractile activity after administration", "setting": "[1]; oxytocin stimulated, in vitro, Pierzynski et al.", "result": "significantly reduced"},
      {"measurement": "estimated half time of a single dose", "setting": "[2]", "result": 7, "unit": "h"}
    ]},
    {"compound": "COc1ccc(S(=O)(=O)N2c3ccc(Cl)cc3[C@](O)(c3ccccc3Cl)[C@@H]2C(=O)N2CCC[C@H]2C(N)=O)cc1OC", "note": "[relcovaptan]", "values": [
      {"measurement": "uterine contractility (area under curve of intrauterine pressure) relative to placebo", "setting": "[3]", "result": "decreasing the uterine contractility"},
      {"measurement": "receptor affinity profile", "setting": "[4]", "result": "greater affinity towards vasopressin V1a receptors as compared to oxytocin receptors"}
    ]},
    {"compound": "CCOc1ccc(C[C@H]2NC(=O)CCSSC[C@@H](C(=O)N3CCC[C@H]3C(=O)N[C@@H](CCCN)C(=O)NCC(N)=O)NC(=O)[C@H](CC(N)=O)NC(=O)[C@H]([C@@H](C)O)NC(=O)[C@H]([C@@H](C)CC)NC2=O)cc1", "note": "[atosiban] ([Mpa][dY](Et)ITNCP[Orn]G-NH2; disulfide 1-6)", "values": [
      {"measurement": "uterine contractions, method II (digital analysis of displacements of endometrial contour)", "setting": "[5]; after the administration of atosiban i.v. (stable blood levels), 11 contractions/4 min before administration", "result": 7, "unit": "contractions/4 min"},
      {"measurement": "uterine contractions, method I (inspection and manual registration of contractions on an accelerated film sequence)", "setting": "[5]; after the administration of atosiban i.v. (stable blood levels, 45 minutes after initiation of infusion), 15 contractions/5 min before administration", "result": 8, "unit": "contractions/5 min"},
      {"measurement": "uterine contractile activity (change versus before atosiban)", "setting": "[5]; time of maximal effect / stable blood levels of atosiban", "result": "notably decreased; also recorded: significant reduction"},
      {"measurement": "pregnancy test", "setting": "[6]; 2 weeks after the embryo transfer, atosiban 6.75 mg bolus, 18 mg/hour then 6 mg/hour i.v.", "result": "positive"},
      {"measurement": "transvaginal sonography finding", "setting": "[6]; 4 weeks after the transfer", "result": "intrauterine, normal twin pregnancy"},
      {"measurement": "adverse reactions", "setting": "[6]; bolus dose of 6.75 mg intravenously, 60 minutes before the transfer", "result": "no adverse reactions"},
      {"measurement": "percentages of actively motile, motile and hyperactively motile sperm (Active %, Motility %, Hyper %) versus control", "setting": "human sperm; [9]", "result": "No significant differences"},
      {"measurement": "sperm movement parameters (VCL, VSL, ALH) versus control", "setting": "human sperm; [9]", "result": "no significant differences"},
      {"measurement": "parameters of human sperm motility (Active %, Motility %, Hyper %, VSL, VCL, ALH) versus control samples", "setting": "human sperm; atosiban 300 nM, 1000 nM, 3000 nM, in vitro, ANOVA", "result": "does not inhibit; also recorded: No significant differences"},
      {"measurement": "embryotoxicity (concluded from sperm motility bioassay)", "setting": "human sperm; atosiban up to 3000 nM", "result": "lacks embryotoxic potential; also recorded: lack of embryotoxicity"},
      {"measurement": "time until stable concentrations are reached", "setting": "[7]", "result": "about an hour"},
      {"measurement": "side effects", "setting": "[8]", "result": "minimal side effects"}
    ]}
  ]
}
